Experimental data taken from US9273040B2 (Merck Sharp & Dohme Corp., priority 2011, dated 2016).
Like-named read-outs stand apart in the source and are kept apart here.

Columns and labels:
[1] = target: T1, human Nav1.7 channels stably expressed in HEK 293 cells (Homo sapiens, UniProt Q15858); assay: PatchXpress 7000 automated patch-clamp, sodium current; type: cell-based; settings: 22° C.
T1 construct: expressed in transfected cells
Method in brief: (§1)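 IC50 values came from Hill-equation fits of rundown-corrected inhibition. PatchXpress recordings at 22° C held cells 20 mV negative to V0.5 inact and applied 10 Hz trains of 30 ms steps to −20 mV (Nav1.7) or an 8000 ms prepulse 7 mV positive to V0.5 inact. […]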

[2] = target: T2, human Nav1.5 channels stably expressed in HEK 293 cells (Homo sapiens, UniProt Q14524); assay: as above; type: cell-based; settings: selectivity over Nav1.5
T2 construct: expressed in transfected cells
T2 sequence (Q14524 whole entry): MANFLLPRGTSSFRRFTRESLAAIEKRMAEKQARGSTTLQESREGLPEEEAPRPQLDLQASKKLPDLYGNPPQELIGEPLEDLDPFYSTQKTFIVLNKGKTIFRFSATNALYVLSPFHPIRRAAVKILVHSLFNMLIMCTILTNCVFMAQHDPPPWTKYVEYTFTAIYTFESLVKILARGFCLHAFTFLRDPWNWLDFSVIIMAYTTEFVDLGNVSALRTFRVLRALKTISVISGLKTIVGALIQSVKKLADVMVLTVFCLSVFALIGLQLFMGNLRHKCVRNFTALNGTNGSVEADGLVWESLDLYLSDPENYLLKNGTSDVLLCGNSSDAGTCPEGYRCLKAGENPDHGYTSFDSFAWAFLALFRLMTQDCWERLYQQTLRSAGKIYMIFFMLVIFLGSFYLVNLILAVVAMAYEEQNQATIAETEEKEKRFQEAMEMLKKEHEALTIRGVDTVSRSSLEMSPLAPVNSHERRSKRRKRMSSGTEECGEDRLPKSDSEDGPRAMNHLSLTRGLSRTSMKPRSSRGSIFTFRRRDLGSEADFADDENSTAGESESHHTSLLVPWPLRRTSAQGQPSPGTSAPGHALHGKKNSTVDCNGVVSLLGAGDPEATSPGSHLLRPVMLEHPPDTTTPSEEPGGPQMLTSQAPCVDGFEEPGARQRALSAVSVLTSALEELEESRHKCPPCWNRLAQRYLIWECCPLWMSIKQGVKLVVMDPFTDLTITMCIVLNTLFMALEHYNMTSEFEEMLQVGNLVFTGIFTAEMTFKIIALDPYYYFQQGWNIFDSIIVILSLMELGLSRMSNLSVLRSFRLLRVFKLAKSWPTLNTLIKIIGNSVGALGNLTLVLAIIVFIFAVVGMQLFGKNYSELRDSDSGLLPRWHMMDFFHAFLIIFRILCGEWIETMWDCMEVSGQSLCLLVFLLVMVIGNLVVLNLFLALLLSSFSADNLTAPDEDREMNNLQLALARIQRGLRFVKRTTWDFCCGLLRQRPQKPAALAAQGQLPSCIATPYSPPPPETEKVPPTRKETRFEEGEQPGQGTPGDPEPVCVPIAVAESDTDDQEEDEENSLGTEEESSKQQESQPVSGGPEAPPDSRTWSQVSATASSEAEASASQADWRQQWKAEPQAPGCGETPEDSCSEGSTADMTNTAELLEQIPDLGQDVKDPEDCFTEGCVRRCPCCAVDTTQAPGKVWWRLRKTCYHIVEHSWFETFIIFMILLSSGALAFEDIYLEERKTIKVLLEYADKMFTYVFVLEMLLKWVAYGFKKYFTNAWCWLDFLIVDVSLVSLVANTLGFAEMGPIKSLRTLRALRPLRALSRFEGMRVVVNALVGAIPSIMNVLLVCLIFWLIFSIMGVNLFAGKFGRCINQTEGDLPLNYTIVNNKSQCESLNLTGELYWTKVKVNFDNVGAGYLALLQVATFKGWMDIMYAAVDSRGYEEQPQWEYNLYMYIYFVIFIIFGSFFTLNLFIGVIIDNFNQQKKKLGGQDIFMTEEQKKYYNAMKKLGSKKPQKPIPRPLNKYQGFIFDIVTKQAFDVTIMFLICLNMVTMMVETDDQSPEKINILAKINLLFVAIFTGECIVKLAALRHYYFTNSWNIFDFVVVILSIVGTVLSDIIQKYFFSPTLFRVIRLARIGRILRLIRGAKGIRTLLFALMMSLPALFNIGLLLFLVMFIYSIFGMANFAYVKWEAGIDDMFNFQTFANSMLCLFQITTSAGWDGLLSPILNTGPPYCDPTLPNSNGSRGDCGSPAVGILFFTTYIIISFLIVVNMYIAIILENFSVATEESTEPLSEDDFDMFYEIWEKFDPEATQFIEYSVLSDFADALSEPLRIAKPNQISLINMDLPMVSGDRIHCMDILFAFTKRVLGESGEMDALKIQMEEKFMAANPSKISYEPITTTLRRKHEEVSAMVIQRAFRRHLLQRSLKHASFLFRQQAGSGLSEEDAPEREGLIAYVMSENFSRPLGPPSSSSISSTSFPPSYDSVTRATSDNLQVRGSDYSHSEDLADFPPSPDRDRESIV
Method in brief: as §1

[3] = read-out: potency for the Nav 1.7 sodium ion channel (as measured by PatchXpress)

T1 sequence (Q15858 whole entry): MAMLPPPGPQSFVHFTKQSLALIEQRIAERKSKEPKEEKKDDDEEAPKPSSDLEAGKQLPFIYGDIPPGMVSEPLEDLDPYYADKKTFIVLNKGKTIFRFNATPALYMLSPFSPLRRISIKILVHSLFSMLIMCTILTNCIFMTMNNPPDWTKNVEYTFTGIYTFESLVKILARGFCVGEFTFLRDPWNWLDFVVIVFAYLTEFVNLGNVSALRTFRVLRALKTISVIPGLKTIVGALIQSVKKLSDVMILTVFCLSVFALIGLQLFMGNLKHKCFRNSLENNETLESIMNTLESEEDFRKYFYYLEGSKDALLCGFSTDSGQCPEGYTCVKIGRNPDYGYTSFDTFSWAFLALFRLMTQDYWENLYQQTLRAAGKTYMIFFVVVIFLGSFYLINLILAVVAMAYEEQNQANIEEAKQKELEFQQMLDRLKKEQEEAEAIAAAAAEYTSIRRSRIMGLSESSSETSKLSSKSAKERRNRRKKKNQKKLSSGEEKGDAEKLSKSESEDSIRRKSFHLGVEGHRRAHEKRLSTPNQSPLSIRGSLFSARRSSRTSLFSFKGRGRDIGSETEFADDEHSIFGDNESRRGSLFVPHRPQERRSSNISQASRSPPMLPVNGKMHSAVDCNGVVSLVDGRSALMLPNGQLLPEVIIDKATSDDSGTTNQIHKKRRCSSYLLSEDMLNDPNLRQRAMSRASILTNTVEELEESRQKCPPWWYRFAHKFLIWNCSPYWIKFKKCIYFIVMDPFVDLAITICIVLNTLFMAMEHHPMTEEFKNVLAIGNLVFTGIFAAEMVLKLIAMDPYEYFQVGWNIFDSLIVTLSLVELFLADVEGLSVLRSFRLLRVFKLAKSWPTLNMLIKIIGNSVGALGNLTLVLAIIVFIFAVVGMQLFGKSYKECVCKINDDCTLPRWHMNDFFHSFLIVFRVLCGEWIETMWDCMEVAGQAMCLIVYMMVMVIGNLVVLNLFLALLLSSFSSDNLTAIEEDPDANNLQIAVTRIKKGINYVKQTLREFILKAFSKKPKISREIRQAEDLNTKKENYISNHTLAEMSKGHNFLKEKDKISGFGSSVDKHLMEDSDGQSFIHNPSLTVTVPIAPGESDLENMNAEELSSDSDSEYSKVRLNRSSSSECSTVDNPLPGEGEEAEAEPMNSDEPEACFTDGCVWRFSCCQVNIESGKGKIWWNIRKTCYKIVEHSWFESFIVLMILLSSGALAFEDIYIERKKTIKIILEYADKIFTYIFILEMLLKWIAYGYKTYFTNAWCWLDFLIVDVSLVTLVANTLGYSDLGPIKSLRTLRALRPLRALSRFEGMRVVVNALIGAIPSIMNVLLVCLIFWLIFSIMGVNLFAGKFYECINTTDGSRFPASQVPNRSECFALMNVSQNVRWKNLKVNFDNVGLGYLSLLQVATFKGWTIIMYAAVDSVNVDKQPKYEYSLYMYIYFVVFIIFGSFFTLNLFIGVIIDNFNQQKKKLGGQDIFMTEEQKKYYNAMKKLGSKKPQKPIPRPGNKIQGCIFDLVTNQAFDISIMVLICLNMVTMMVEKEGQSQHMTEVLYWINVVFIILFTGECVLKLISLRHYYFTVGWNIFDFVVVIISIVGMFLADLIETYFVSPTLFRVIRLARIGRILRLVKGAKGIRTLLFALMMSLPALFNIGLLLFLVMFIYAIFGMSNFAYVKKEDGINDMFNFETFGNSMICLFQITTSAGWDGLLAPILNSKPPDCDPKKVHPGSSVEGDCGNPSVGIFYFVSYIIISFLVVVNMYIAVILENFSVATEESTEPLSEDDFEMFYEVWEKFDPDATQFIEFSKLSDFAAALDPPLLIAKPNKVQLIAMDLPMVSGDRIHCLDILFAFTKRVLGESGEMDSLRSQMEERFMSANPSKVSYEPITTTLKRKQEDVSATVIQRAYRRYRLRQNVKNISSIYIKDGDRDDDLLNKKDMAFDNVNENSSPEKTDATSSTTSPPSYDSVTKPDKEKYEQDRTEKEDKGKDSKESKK

Compound	IC50 [1, 3] [nM]	ratio of Nav 1.5:Nav 1.7 potency, determined by PatchXpress measurement [2]	IC50 ([1]; potency for the Nav 1.7 sodium ion channel (as measured by PatchXpress)) [nM]
C[C@H](c1cccc(-c2ccn(C)n2)c1)n1c(=O)oc2cc(S(=O)(=O)Nc3ncns3)c(F)cc21 [Compound 28-3, (R)-5-Fluoro-3-(1-(3-(1-methyl-1H-pyrazol-3-yl)phenyl)ethyl)-2-oxo-N-(1,2,4-thiadiazol-5-yl)-2,3-dihydrobenzo[d]oxazole-6-sulfonamide]	306	86	–
C[C@H](c1cccc(-c2ccc(O)nc2)c1)n1c(=O)oc2cc(S(=O)(=O)Nc3ncns3)c(F)cc21 [Compound 28-4, 5-fluoro-3-{(1R)-1-[3-(6-hydroxypyridin-3-yl)phenyl]ethyl}-2-oxo-N-1,2,4-thiadiazol-5-yl-2,3-dihydro-1,3-benzoxazole-6-sulfonamide]	107	181	–
Cc1n[nH]cc1-c1cccc([C@@H](C)n2c(=O)oc3cc(S(=O)(=O)Nc4ncns4)c(F)cc32)c1 [Compound 28-5, 5-fluoro-3-{(1R)-1-[3-(3-methyl-1H-pyrazol-4-yl)phenyl]ethyl}-2-oxo-N-1,2,4-thiadiazol-5-yl-2,3-dihydro-1,3-benzoxazole-6-sulfonamide]	48	64	–
CC(c1cccc(-c2ccnc(CO)c2)c1)n1c(=O)oc2cc(S(=O)(=O)Nc3ncns3)c(F)cc21 (centres unmarked) [Compound 29-3, 5-fluoro-3-(1-{3-[2-(hydroxymethyl)pyridin-4-yl]phenyl}ethyl)-2-oxo-N-1,2,4-thiadiazol-5-yl-2,3-dihydro-1,3-benzoxazole-6-sulfonamide]	216	61	–
CC(c1cccc(-c2cccnc2)c1)n1c(=O)oc2cc(S(=O)(=O)Nc3ncns3)c(F)cc21 (centres unmarked) [Compound 29-4, 5-fluoro-2-oxo-3-[1-(3-pyridin-3-ylphenyl)ethyl]-N-1,2,4-thiadiazol-5-yl-2,3-dihydro-1,3-benzoxazole-6-sulfonamide]	162	57	–
C[C@H](c1cccc(C#CCN)c1)n1c(=O)oc2cc(S(=O)(=O)Nc3ncns3)c(F)cc21 [Compound 30-3, (R)-3-(1-(3-(3-aminoprop-1-yn-1-yl)phenyl)ethyl)-5-fluoro-2-oxo-N-(1,2,4-thiadiazol-5-yl)-2,3-dihydrobenzo[d]oxazole-6-sulfonamide]	28	289	–
C[C@H](c1cccc(C#CC2(N)CCCCC2)c1)n1c(=O)oc2cc(S(=O)(=O)Nc3ncns3)c(F)cc21 [Compound 30-4]	10	309	–
C[C@H](c1ccccc1C1CNC1)n1c(=O)oc2cc(S(=O)(=O)Nc3ncns3)c(F)cc21 [Compound 31-1, (R)-3-(1-(2-(azetidin-3-yl)phenyl)ethyl)-5-fluoro-2-oxo-N-(1,2,4-thiadiazol-5-yl)-2,3-dihydrobenzo[d]oxazole-6-sulfonamide]	15	603	–
C[C@H](c1ccccc1C1(O)CNC1)n1c(=O)oc2cc(S(=O)(=O)Nc3ncns3)c(F)cc21 [Compound 32-4, (R)-5-fluoro-3-(1-(2-(3-hydroxyazetidin-3-yl)phenyl)ethyl)-2-oxo-N-(1,2,4-thiadiazol-5-yl)-2,3-dihydrobenzo[d]oxazole-6-sulfonamide]	34	110	–
C[C@H](c1ccccc1C1(F)CNC1)n1c(=O)oc2cc(S(=O)(=O)Nc3ncns3)c(F)cc21 [Compound 32-6, (R)-5-Fluoro-3-(1-(2-(3-fluoroazetidin-3-yl)phenyl)ethyl)-2-oxo-N-(1,2,4-thiadiazol-5-yl)-2,3-dihydrobenzo[d]oxazole-6-sulfonamide]	18	1333	–
C[C@H](c1ccccc1CCCN)n1c(=O)oc2cc(S(=O)(=O)Nc3ncns3)c(F)cc21 [Compound 33-7, (R)-3-(1-(2-(3-Aminopropyl)phenyl)ethyl)-5-fluoro-2-oxo-N-(1,2,4-thiadiazol-5-yl)-2,3-dihydrobenzo[d]oxazole-6-sulfonamide]	51	166	–
C[C@@H](c1ccccc1CCCN)n1c(=O)oc2cc(S(=O)(=O)Nc3ncns3)c(F)cc21 [Compound 33-8]	168	179	–
C[C@H](c1ccccc1C1=CCNCC1)n1c(=O)oc2cc(S(=O)(=O)Nc3ncns3)c(Cl)cc21.Cl [Compound 34-6, (R)-5-chloro-2-oxo-3-(1-(2-(1,2,3,6-tetrahydropyridin-4-yl)phenyl)ethyl)-N-(1,2,4-thiadiazol-5-yl)-2,3-dihydrobenzo[d]oxazole-6-sulfonamide hydrochloride]	–	1200	25
C[C@H](c1ccccc1C#CCN)n1c(=O)oc2cc(S(=O)(=O)Nc3ncns3)c(Cl)cc21 [Compound 34-8, 3-{(1R)-1-[2-(3-aminoprop-1-yn-1-yl)phenyl]ethyl}-5-chloro-2-oxo-N-1,2,4-thiadiazol-5-yl-2,3-dihydro-1,3-benzoxazole-6-sulfonamide]	40	40	–
C[C@H](c1cccc2c1CNCC2)n1c(=O)oc2cc(S(=O)(=O)Nc3ncns3)c(Br)cc21 [Compound 35-5, (R)-5-bromo-2-oxo-3-(1-(1,2,3,4-tetrahydroisoquinolin-8-yl)ethyl)-N-(1,2,4-thiadiazol-5-yl)-2,3-dihydrobenzo[d]oxazole-6-sulfonamide]	16	932	–
C[C@H](c1ccccc1C#CCN)n1c(=O)oc2cc(S(=O)(=O)Nc3ncns3)c(Br)cc21 [Compound 35-6, 3-{(1R)-1-[2-(3-aminoprop-1-yn-1-yl)phenyl]ethyl}-5-bromo-2-oxo-N-1,2,4-thiadiazol-5-yl-2,3-dihydro-1,3-benzoxazole-6-sulfonamide]	27	334	–
C[C@H](c1ccccc1C1=CCN(S(C)(=O)=O)CC1)n1c(=O)oc2cc(S(=O)(=O)Nc3ncns3)c(Cl)cc21 [Compound 36-1, (R)-5-chloro-3-(1-(2-(1-(methylsulfonyl)-1,2,3,6-tetrahydropyridin-4-yl)phenyl)ethyl)-2-oxo-N-(1,2,4-thiadiazol-5-yl)-2,3-dihydrobenzo[d]oxazole-6-sulfonamide]	527	54	–
C[C@H](c1ccccc1C1=CCN(S(C)(=O)=O)CC1)n1c(=O)oc2cc(S(=O)(=O)Nc3ncns3)c(F)cc21 [Compound 36-3, 5-fluoro-3-[(1R)-1-{2-[1-(methylsulfonyl)-1,2,3,6-tetrahydropyridin-4-yl]phenyl}ethyl]-2-oxo-N-1,2,4-thiadiazol-5-yl-2,3-dihydro-1,3-benzoxazole-6-sulfonamide]	255	88	–
C[C@H](c1ccccc1C#CCNS(C)(=O)=O)n1c(=O)oc2cc(S(=O)(=O)Nc3ncns3)c(Br)cc21 [Compound 36-4, 5-bromo-3-[(1R)-1-(2-{3-[(methylsulfonyl)amino]prop-1-yn-1-yl}phenyl)ethyl]-2-oxo-N-1,2,4-thiadiazol-5-yl-2,3-dihydro-1,3-benzoxazole-6-sulfonamide]	169	36	–
